Assays:
Cytochrome b [1] = target: Cytochrome b (Homo sapiens, UniProt P00156); assay: Cytochrome b Enzyme Assay; conditions: pH 7.4; 25 °C
Description: (§1) Reaction plates were incubated at room temperature for 10 min before reading absorbance at 550 nm. Absolute IC50 values were calculated in GraphPad Prism 6.0.

Cytochrome b [2] = target: T1, Cytochrome b (Candida albicans, UniProt I2BJW5); assay: Cytochrome b Enzyme Assay; conditions: pH 7.4; 25 °C
T1 sequence (I2BJW5 whole entry): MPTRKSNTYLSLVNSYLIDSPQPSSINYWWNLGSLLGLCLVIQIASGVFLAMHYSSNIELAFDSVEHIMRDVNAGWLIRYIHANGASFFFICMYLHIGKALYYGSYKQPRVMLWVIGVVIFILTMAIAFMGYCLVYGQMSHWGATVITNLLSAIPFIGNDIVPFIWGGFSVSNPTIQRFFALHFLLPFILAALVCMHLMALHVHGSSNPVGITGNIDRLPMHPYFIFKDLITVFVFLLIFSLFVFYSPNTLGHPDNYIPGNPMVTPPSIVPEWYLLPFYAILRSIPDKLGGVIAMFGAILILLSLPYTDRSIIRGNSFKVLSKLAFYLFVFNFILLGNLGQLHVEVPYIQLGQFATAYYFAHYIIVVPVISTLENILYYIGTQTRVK
Description: as §1

Cytochrome b (Homo sapiens, UniProt P00156), sequence (P00156 whole entry): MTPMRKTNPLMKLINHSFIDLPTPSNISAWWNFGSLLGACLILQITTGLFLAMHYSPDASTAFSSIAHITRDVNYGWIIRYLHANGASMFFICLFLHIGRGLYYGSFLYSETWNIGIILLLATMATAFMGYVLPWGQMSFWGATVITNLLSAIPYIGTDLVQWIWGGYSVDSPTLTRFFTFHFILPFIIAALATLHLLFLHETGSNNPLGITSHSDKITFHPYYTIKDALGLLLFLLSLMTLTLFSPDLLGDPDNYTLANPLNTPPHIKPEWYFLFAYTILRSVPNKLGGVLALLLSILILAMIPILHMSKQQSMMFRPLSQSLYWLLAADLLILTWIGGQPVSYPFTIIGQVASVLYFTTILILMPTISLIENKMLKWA

Compound	IC50 (Cytochrome b [1]) [µM]	IC50 (Cytochrome b [2]) [µM]
CCCCCCC1C(=O)O[C@H](C)[C@H](NC(=O)c2cccc(NC=O)c2O)C(=O)O[C@@H](C)[C@@H]1OC(=O)CC(C)C (stereo partly drawn) [[(2R,3S,6S,7R)-3-[(3-formamido-2-hydroxybenzoyl)amino]-8-hexyl-2,6-dimethyl-4,9-dioxo-1,5-dioxonan-7-yl] 3-methylbutanoate]	0.007	0.005
COC(=O)Cn1nc(-c2cc(OCCCC3CCCCC3)ccc2F)c2ccccc21 [Inz-81]	2.43	0.129
CCC(=O)Cn1nc(-c2cccc(OCc3ccccc3)c2)c2ccccc21 [Inz-43]	> 64	22.8
Cn1nc(-c2cccc(OCc3ccccc3)c2)c2ccccc21 [Inz-44]	> 64	> 64
Cc1cccc2c(-c3cc(C(F)(F)F)ccc3F)nn(Cc3nnn(C)n3)c12 [Inz-5]	6.51	0.289
Nc1ccc2c(-c3cc(C(F)(F)F)ccc3F)nn(Cc3cnccn3)c2c1 [Inz-100]	> 64	5.48
COC(=O)Cn1nc(-c2cccc(CCc3ccccc3)c2)c2ccccc21 [Inz-45]	1.17	0.0663
Cn1nnc(Cn2nc(-c3ccccc3)c3ccccc32)n1 [Inz-34]	> 64	22.6
COC(=O)Cn1nc(-c2cccc(Oc3ccccc3)c2)c2ccccc21 [Inz-7]	9.97	0.714
COC(=O)Cn1nc(-c2cccc(OC)c2)c2ccccc21 [Inz-6]	28.4	1.52
CS(=O)(=O)Cn1nc(-c2ccccc2)c2ccccc21 [Inz-27]	> 64	> 64
c1ccc(-c2nn(Cc3ncccn3)c3ccccc23)cc1 [Inz-36]	> 64	> 64
COC(=O)Cn1nc(-c2ccccc2)c2ccccc21 [Inz-1]	45.3	8.09
COC(=O)Cn1nc(-c2cccc(F)c2)c2ccccc21 [Inz-70]	> 64	5.91
O=C(Cn1nc(-c2ccccc2)c2ccccc21)NO [Inz-88]	> 64	> 64
CNc1ccc2c(-c3cc(C(F)(F)F)ccc3F)nn(Cc3cnccn3)c2c1 [Inz-103]	> 64	2.13

Compound	IC50 (Cytochrome b [1]) [µM]	IC50 (Cytochrome b [2]) [µM]
COC(=O)Cn1nc(-c2cc(F)ccc2F)c2ccccc21 [Inz-61]	> 64	0.891
COC(=O)Cn1ccc(-c2cccc(OCc3ccccc3)c2)n1 [Inz-48]	> 64	> 64
FC(F)(F)Cn1nc(-c2ccccc2)c2ccccc21 [Inz-28]	> 64	> 64
COC(=O)Cn1nc(-c2ccccc2C)c2ccccc21 [Inz-17]	> 64	3.37
COC(=O)Cn1nc(-c2cc(OCCCC3CCCCC3)ccc2F)c2cccc(C)c21 [Inz-80]	0.79	0.0388
O=C(O)Cn1nc(-c2cccc(OCc3ccccc3)c2)c2ccccc21 [Inz-47]	> 64	> 64
COC(=O)Cn1nc(-c2cccc(OCCN(C)C)c2)c2ccccc21 [Inz-63]	> 64	35.2
Fc1ccc(C(F)(F)F)cc1-c1nn(Cc2cnccn2)c2cccnc12 [Inz-99]	> 64	17.7
COC(=O)Cn1nc(-c2ccccc2OCc2ccccc2)c2ccccc21 [Inz-55]	> 64	> 64
COC(=O)Cn1nc(-c2ccccc2C#N)c2ccccc21 [Inz-20]	> 64	> 64
COC(=O)Cn1nc(-c2cccc(OCC3CCCCC3)c2)c2ccccc21 [Inz-9]	0.889	0.087
COC(=O)Cn1nc(-c2cc(F)ccc2C)c2ccccc21 [Inz-62]	> 64	4.7
Brc1cccnc1Cn1nc(-c2ccccc2)c2ccccc21 [Inz-90]	> 64	> 64
c1ccc(-c2nn(Cc3cnccn3)c3ccccc23)cc1 [Inz-37]	> 64	5.42
COC(=O)Cn1nc(-c2ccccc2O)c2ccccc21 [Inz-52]	> 64	3.57

Reference: BindingDB's records for doi:10.1016/j.chembiol.2016.06.016 (Massachusetts Institute of Technology, 2016)
